Data as given in publication PMC6792352, “Limited Chemical Structural Diversity Found to Modulate Thyroid Hormone Receptor in the Tox21 Chemical Library” (Environmental Health Perspectives, 2019).
Counter-ions that a name gives are not always drawn.

Test: in vitro
Conditions: rat, gh3-tre-luc cells, AC50 (uM) modified / 1000
Work on Nc1ccc(S(=O)(=O)Nc2ccccn2)cc1 [Sulfapyridine] yielded a CC50 at 24 h greater than 20 µM. Work on CCN(CC)CCNC(=O)c1cc(Cl)c(N)cc1OC [Metoclopramide] yielded a CC50 at 24 h greater than 50 µM. CC1(C)C(O)C(C)(C)C1O (centres unmarked) [2,2,4,4-Tetramethylcyclobutane-1,3-diol] gave a CC50 at 24 h greater than 90 µM. CC(=O)O[C@H]1C[C@@]2(C)[C@@H](C[C@@H](O)[C@H]3[C@@]4(C)CC[C@@H](O)[C@@H](C)[C@@H]4CC[C@@]32C)/C1=C(\CCC=C(C)C)C(=O)O [Fusidate sodium] gave a CC50 at 24 h greater than 50 µM. CCCCCCCCCCCCCCCC(=O)OC[C@H](O)[C@H]1OC(=O)C(O)=C1O [Ascorbyl palmitate] showed a CC50 at 24 h greater than 50 µM. Cc1ccc(O)c(-n2nc3ccccc3n2)c1 [2-(2H-Benzotriazol-2-yl)-4-methylphenol] gave a CC50 at 24 h greater than 90 µM. In the case of O=C(O)c1cc2cc(Cc3cccnc3)ccc2o1 [Furegrelate sodium], the CC50 at 24 h is reported as greater than 50 µM. Compound OCCNCc1ccccc1 [N-Benzylethanolamine] has a CC50 at 24 h greater than 90 µM. With C=C(C)C(=O)OC1CC(C)CC(C)(C)C1 (centres unmarked) [3,3,5-Trimethylcyclohexyl 2-methylprop-2-enoate] the CC50 at 24 h was greater than 90 µM. Compound O=S(=O)(O)C(F)(F)F [Trifluoromethanesulfonic acid] has a CC50 at 24 h greater than 90 µM. CCc1cc(C(N)=S)ccn1 [Ethionamide] showed a CC50 at 24 h greater than 50 µM. Nc1ccccc1 [Anilinium nitrate] gave a CC50 at 24 h greater than 50 µM. Work on Cc1ccc(Nc2c(F)cccc2Cl)c(CC(=O)O)c1 [Lumiracoxib] yielded a CC50 at 24 h greater than 50 µM. For CCOC(=O)Nc1ccc(NCc2ccc(F)cc2)nc1N [Flupirtine maleate], the CC50 at 24 h was greater than 50 µM. In the case of O=C1CCCCCCCCCCC1 [Cyclododecanone], the CC50 at 24 h is reported as greater than 90 µM. With NC(=O)N1c2ccccc2C=Cc2ccccc21 [Carbamazepine] the CC50 at 24 h was greater than 90 µM. With CC(C)(C)[C@]1(O)CCN2C[C@H]3c4ccccc4CCc4cccc(c43)[C@@H]2C1 [Butaclamol hydrochloride] the CC50 at 24 h was 22.9 µM. CCOS(C)(=O)=O [Ethyl methanesulfonate] gave a CC50 at 24 h greater than 90 µM. COc1cc(C)nc(-n2nc(C)cc2OC)n1 [Epirizole] gave a CC50 at 24 h greater than 20 µM. For CCCCCCCCCCCCCC(=O)OC [Methyl tetradecanoate], the CC50 at 24 h was greater than 90 µM. Compound COc1ccc2nc(NC(=O)Nc3ccccc3)sc2c1 [Frentizole] has a CC50 at 24 h greater than 50 µM. Work on CCOC(=O)O[C@]1(C(=O)COC(=O)CC)CC[C@H]2[C@@H]3CCC4=CC(=O)C=C[C@]4(C)[C@H]3[C@@H](O)C[C@@]21C [Prednicarbate] yielded a CC50 at 24 h greater than 20 µM. With CCCCCCCC(=O)O [Octanoic acid] the CC50 at 24 h was greater than 90 µM. Cc1cc(O)c2c(O)c3c(O)cccc3cc2c1 [Chrysarobin] showed a CC50 at 24 h greater than 50 µM. In the case of O=C(O)c1cc(Cl)cc([N+](=O)[O-])c1Cl [2,5-Dichloro-3-nitrobenzoic acid], the CC50 at 24 h is reported as greater than 90 µM. OC1CCCCCCCCCCC1 [Cyclododecanol] showed a CC50 at 24 h greater than 90 µM. Work on COCCOC [Ethylene glycol dimethyl ether] yielded a CC50 at 24 h greater than 90 µM. In the case of Cc1nnc2n1-c1ccc(Cl)cc1C(c1ccccc1Cl)=NC2 [Triazolam], the CC50 at 24 h is reported as greater than 50 µM. In the case of CCCC(=O)OC [Methyl butyrate], the CC50 at 24 h is reported as greater than 90 µM. COC(=O)CSc1cc(/N=c2\sc(=O)n3n2CCCC3)c(F)cc1Cl [Fluthiacet-methyl] gave a CC50 at 24 h greater than 90 µM. For C[C@]12CCC(=O)C=C1C=C[C@@H]1[C@@H]2CC[C@@]2(C)[C@H]1CC[C@@]2(O)CCC(=O)O [Canrenoate potassium], the CC50 at 24 h was greater than 20 µM. In the case of Cc1cccc2ccccc12 [1-Methylnaphthalene], the CC50 at 24 h is reported as greater than 90 µM. With CCCC[n+]1cccc(C)c1 [1-Butyl-3-methylpyridinium bromide] the CC50 at 24 h was greater than 90 µM. For CCCCCC#CC(=O)OC [Methyl 2-octynoate], the CC50 at 24 h was greater than 90 µM. CC(C)(C)N(NC(=O)c1ccc(Cl)cc1)C(=O)c1ccccc1 [Halofenozide] gave a CC50 at 24 h of 4.99 µM. Compound OC[C@H]1O[C@H](O[C@]2(CCl)O[C@H](CCl)[C@@H](O)[C@@H]2O)[C@H](O)[C@@H](O)[C@H]1Cl [Sucralose] has a CC50 at 24 h greater than 90 µM. For Nc1ccc(S(=O)(=O)c2ccc(N)cc2)cc1 [Dapsone], the CC50 at 24 h was greater than 50 µM. In the case of COC(C)(C)CCCC(C)CC=O (centres unmarked) [7-Methoxy-3,7-dimethyloctanal], the CC50 at 24 h is reported as greater than 90 µM. [O-][n+]1cc[n+]([O-])c2ccccc21 [Quindoxin] showed a CC50 at 24 h greater than 50 µM. With C[C@H]1C[C@H]2[C@@H]3CCC4=CC(=O)C=C[C@]4(C)[C@@]3(Cl)[C@@H](O)C[C@]2(C)[C@@]1(O)C(=O)CO [Beclomethasone] the CC50 at 24 h was greater than 50 µM. Compound CC(C)C1=CC2=CC[C@@H]3[C@](C)(CCC[C@@]3(C)C(=O)O)[C@H]2CC1 [Sodium abietate] has a CC50 at 24 h of 74.3 µM. In the case of CCCCNc1c(C(=O)OCC)c(C)nc2c1cnn2CC [Tracazolate hydrochloride], the CC50 at 24 h is reported as greater than 50 µM. For C/C=C/C(=O)CCCC [2-Octen-4-one], the CC50 at 24 h was greater than 90 µM. Compound O=C(NC(=O)c1c(F)cccc1F)Nc1ccc(Cl)c(Oc2ncc(C(F)(F)F)cc2Cl)c1 [Fluazuron] has a CC50 at 24 h greater than 50 µM. With CN(C)C(=O)NC1(c2ccccc2)CCN(CCC[C@]2(c3ccc(Cl)c(Cl)c3)CCCN(C(=O)c3ccccc3)C2)CC1 [SSR146977] the CC50 at 24 h was 8.07 µM. For CC1(C)Cc2cccc(N)c2O1 [2,2-Dimethyl-2,3-dihydro-1-benzofuran-7-amine], the CC50 at 24 h was greater than 90 µM. In the case of OCc1ccc(Cl)cc1Cl [2,4-Dichlorobenzyl alcohol], the CC50 at 24 h is reported as greater than 90 µM. In the case of Nc1cc(Cl)ccc1O [2-Amino-4-chlorophenol], the CC50 at 24 h is reported as 30.7 µM. In the case of O=C1C(c2[nH]c3ccccc3c2O)=Nc2ccccc21 [Indigo dye], the CC50 at 24 h is reported as greater than 90 µM. In the case of Clc1ccc(C(Cn2ccnc2)OCc2csc3c(Cl)cccc23)c(Cl)c1 (centres unmarked) [Sertaconazole nitrate], the CC50 at 24 h is reported as 18.4 µM. CC(C)CC(C)CC(O)CC(C)C (centres unmarked) [2,6,8-Trimethyl-4-nonanol] showed a CC50 at 24 h greater than 90 µM. With O=C(O)CNC(=O)c1ccc([N+](=O)[O-])cc1 [4-Nitrohippuric acid] the CC50 at 24 h was greater than 90 µM. N=C(N)NCCC[C@H](NC(=O)[C@@H]1CCCN1C(=O)[C@@H]1CSSCCC(=O)N[C@@H](Cc2ccc(O)cc2)C(=O)N[C@@H](Cc2ccccc2)C(=O)N[C@@H](CCC(N)=O)C(=O)N[C@@H](CC(N)=O)C(=O)N1)C(=O)NCC(N)=O [Desmopressin acetate] gave a CC50 at 24 h greater than 50 µM. CC1=C(O)C(=O)C(C)O1 (centres unmarked) [4-Hydroxy-2,5-dimethyl-3(2H)furanone] gave a CC50 at 24 h greater than 90 µM. CCN(CC)CCOC(=O)C(c1ccccc1)c1ccccc1 [Adiphenine hydrochloride] showed a CC50 at 24 h of 43.3 µM. Work on C1CCCNCC1 [Hexamethyleneimine] yielded a CC50 at 24 h greater than 100 µM. Work on CC/C=C\C/C=C\C/C=C\CCCCCCCC(=O)OCC [Ethyl linolenate] yielded a CC50 at 24 h greater than 90 µM.

Same assay, conditions: rat, gh3-tre-luc cells, AC50 (uM) modified / 1000, Tox21_110001=Tox21_111928; viability, 1 nM T3 present, 24 h
With CNC(=O)Oc1ccccc1C(=O)Nc1ccccc1 [Anilamate] the CC50 at 24 h was greater than 50 µM.

Same assay, conditions: rat, gh3-tre-luc cells, AC50 (uM) modified / 1000, Tox21_110001=Tox21_113018; viability, 1 nM T3 present, 24 h
C[C@H]1CNCCc2ccc(Cl)cc21 [Lorcaserin] showed a CC50 at 24 h greater than 50 µM.

Same assay, conditions: rat, gh3-tre-luc cells, AC50 (uM) modified / 1000, Tox21_110001=Tox21_200050; viability, 1 nM T3 present, 24 h
Work on NC(=O)C(Cl)Cl [2,2-Dichloroacetamide] yielded a CC50 at 24 h greater than 90 µM.

Same assay, conditions: rat, gh3-tre-luc cells, AC50 (uM) modified / 1000, Tox21_110001=Tox21_200894; viability, 1 nM T3 present, 24 h
For O=C(O)C(Cl)Br (centres unmarked) [Bromochloroacetic acid], the CC50 at 24 h was greater than 90 µM.

Same assay, conditions: rat, gh3-tre-luc cells, AC50 (uM) modified / 1000, Tox21_110001=Tox21_202349; viability, 1 nM T3 present, 24 h
CCCCCc1cc(O)cc(O)c1 [Olivetol] showed a CC50 at 24 h of 78.4 µM.

Same assay, conditions: rat, gh3-tre-luc cells, AC50 (uM) modified / 1000, Tox21_110001=Tox21_300608; viability, 1 nM T3 present, 24 h
O=C(O)C(F)(F)C(F)(F)C(F)(F)C(F)(F)C(F)(F)C(F)(F)C(F)(F)C(F)(F)C(F)(F)F [Perfluorodecanoic acid] showed a CC50 at 24 h greater than 90 µM.

Same assay, conditions: rat, gh3-tre-luc cells, AC50 (uM) modified / 1000, Tox21_110001=Tox21_302237; viability, 1 nM T3 present, 24 h
In the case of Cc1c([N+](=O)[O-])cc2c(c1[N+](=O)[O-])C(C)(C)CC2(C)C [1,1,3,3,5-Pentamethyl-4,6-dinitro-2,3-dihydro-1H-indene], the CC50 at 24 h is reported as 74.8 µM.

Same assay, conditions: rat, gh3-tre-luc cells, AC50 (uM) modified / 1000, Tox21_110001=Tox21_303332; viability, 1 nM T3 present, 24 h
With CCCCCc1cc(O)cc(O)c1 [Olivetol] the CC50 at 24 h was 75.4 µM.
